Data taken from patent US20120214193A1, “METHOD FOR MEASUREMENT OF FLUORESCENCE INTENSITY OF VOLTAGE-SENSITIVE FLUORESCENT DYE” (Keio University, priority 2009, published 2012).

System: human ES cell derived cardiomyocytes
Assay: Activity potential measurement of cardiomyocytes treated with a potential-sensitive fluorochrome
Format: cell-based
Conditions: 18.75 μM vitamin E and/or 18.75 μM cholesterol
From the text: Human embryonic stem cells (ES cells) were obtained from Stem Cell Research Center, the Institute for Frontier Medical Sciences, Kyoto University (Embryonic Stem Cell Center sponsored by the National Bioresource Project). Human induced pluripotent stem cells (iPS cells) were obtained from the Center for iPS Cell Research and Application, Institute for Integrated Cell-Material Sciences, Kyoto University. […] To prepare the MEF cells, the fetus of an ICR mouse at day 14 of gestation (CLEA Japan, Inc.) was beheaded and disemboweled and thereafter disintegrated into discrete cells by the method described in WO 2006/022377. […] In other experiments, the cultured cells were treated with a potential-sensitive fluorochrome and 18.75 μM of vitamin E and/or 18.75 μM of cholesterol and then the temporal change in fluorescent intensity was measured. […]

Row | Compound | detection of activity potential waveforms from single cardiomyocytes (FIG. 5)
1 | CC(C)CCC[C@@H](C)[C@H]1CC[C@H]2[C@@H]3CC=C4C[C@@H](O)CC[C@]4(C)[C@H]3CC[C@]12C [cholesterol] | became observable
2 | vitamin E | became observable
